From patent US7205295B2, “Benzoxazin-3-ones and derivatives thereof as therapeutic agents” (Warner-Lambert Company LLC, priority 2002, dated 2007) come the findings set out here.

In general, melting point refers to the temperature, or range, at which the solid turns liquid. One may read the IC50 as the midpoint of a concentration-inhibition curve.

T1 sequence (P48736 whole entry, species assumed): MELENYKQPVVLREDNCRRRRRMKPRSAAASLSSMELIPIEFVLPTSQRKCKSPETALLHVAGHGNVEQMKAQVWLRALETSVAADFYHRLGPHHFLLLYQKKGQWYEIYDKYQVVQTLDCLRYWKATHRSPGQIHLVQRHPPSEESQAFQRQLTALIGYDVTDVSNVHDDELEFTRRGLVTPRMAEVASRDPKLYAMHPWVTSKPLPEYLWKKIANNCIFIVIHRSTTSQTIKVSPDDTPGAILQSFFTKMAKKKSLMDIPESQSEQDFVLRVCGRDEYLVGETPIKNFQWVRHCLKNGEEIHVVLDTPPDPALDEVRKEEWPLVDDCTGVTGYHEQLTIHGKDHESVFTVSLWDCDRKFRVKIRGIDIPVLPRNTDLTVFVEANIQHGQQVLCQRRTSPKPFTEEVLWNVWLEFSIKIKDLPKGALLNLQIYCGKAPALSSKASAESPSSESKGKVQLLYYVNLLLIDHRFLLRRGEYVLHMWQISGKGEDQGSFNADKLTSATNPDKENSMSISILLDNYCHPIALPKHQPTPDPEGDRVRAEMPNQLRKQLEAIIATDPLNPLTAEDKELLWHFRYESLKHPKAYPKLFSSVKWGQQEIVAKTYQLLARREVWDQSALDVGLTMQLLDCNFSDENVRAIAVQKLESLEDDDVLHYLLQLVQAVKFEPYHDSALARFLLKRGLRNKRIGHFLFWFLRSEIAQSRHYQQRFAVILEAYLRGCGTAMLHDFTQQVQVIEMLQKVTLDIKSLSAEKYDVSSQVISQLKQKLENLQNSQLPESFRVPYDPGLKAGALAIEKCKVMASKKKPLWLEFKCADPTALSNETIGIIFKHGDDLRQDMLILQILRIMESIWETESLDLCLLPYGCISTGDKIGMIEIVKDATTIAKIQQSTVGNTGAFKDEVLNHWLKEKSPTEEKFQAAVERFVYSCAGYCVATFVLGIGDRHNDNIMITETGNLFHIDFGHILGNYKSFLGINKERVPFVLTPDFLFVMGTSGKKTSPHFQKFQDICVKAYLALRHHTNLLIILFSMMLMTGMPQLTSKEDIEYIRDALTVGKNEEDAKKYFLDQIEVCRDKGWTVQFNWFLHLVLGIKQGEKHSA
T1 sequence (Q8WYR1 whole entry partner, species assumed): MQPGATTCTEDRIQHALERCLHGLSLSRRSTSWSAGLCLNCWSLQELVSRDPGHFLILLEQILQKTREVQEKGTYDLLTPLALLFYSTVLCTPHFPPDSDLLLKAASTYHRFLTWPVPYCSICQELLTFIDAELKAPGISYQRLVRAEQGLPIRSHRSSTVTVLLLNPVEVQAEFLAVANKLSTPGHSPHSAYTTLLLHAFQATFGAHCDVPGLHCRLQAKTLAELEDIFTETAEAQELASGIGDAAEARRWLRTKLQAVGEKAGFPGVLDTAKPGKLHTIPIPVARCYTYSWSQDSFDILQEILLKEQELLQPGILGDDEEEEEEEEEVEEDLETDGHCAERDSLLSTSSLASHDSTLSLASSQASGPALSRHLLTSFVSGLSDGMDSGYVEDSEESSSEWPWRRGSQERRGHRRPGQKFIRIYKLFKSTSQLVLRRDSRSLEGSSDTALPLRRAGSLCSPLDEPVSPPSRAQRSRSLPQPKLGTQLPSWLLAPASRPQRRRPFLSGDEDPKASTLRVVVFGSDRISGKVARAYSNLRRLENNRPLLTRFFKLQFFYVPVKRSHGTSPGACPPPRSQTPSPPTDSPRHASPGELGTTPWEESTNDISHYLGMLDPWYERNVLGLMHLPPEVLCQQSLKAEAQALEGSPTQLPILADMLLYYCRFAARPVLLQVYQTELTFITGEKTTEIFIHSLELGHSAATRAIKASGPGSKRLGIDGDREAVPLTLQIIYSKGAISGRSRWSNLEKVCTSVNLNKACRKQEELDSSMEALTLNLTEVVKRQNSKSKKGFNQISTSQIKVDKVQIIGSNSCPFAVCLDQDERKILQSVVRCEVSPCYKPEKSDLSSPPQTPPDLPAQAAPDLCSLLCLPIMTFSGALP

Test system in one series: not given
Assay: not given
Details: not given
As to `CC(C)Oc1cc(CN2C(=O)COc3ccc(C=C4SC(=S)NC4=O)cc32)cc(OC(C)C)c1` [Example 94, 4-(3,5-Diisopropoxy-benzyl)-6-(4-oxo-2-thioxo-thiazolidin-5-ylidenemethyl)-4H-benzo[1,4]oxazin-3-one], the melting point lay within 245 to 247 °C.

Take `O=C1NC(=S)SC1=Cc1ccc2c(c1)N(CCc1ccccc1C(F)(F)F)C(=O)CO2` [Example 108, 6-(Oxo-2-thioxo-thiazolidin-5-ylidenmethyl)-4-[2-(2-trifluoromethyl-phenyl)-ethyl]-4H-benzo[1,4]oxazin-3-one]: the melting point lay in the range of 283 to 286 °C.

Molecule `O=C1NC(=S)SC1=Cc1ccc2c(c1)N(OCc1ccccc1)C(=O)CO2` [Example 90, 4-Benzyloxy-6-(4-oxo-2-thioxo-thiazolidin-5-ylidenemethyl)-4H-benzo[1,4]oxazin-3-one] displayed a melting point of over 300 °C.

Regarding `Cc1cc(C=C2SC(=S)NC2=O)cc2c1OCC(=O)N2Cc1ccc(CN2CCCCC2)cc1` [Example 91, 8-Methyl-6-(4-oxo-2-thioxo-thiazolidin-5-ylidenemethyl)-4-(4-piperidin-1-ylmethyl-benzyl)-4H-benzo[1,4]oxazin-3-one], the melting point lay within 277 to 278 °C.

`COc1cccc(CCN2C(=O)COc3ccc(C=C4SC(=S)NC4=O)cc32)c1` [Example 137, 4-[2-(3-Methoxy-phenyl)-ethyl]-6-(4-oxo-2-thioxo-thiazolidin-5-ylidenemethyl)-4H-1,4-benzoxazin-3-one] returned a melting point of 233 to 236 °C.

Another series has as its target T1, PI3Kγ (p101/p110γ protein) (Homo sapiens, UniProt P48736).
T1 construct: HA; made in house; host or cells: Spodoptera frugiperda (Sf9) cells, baculovirus co-infection
Briefly: PI3Kγ In Vitro Kinase Assay. It is filed as biochemical. The following applies: purified recombinant p101/p110γ with G protein β1/γ2 subunits; 20 μM ATP, 25 μM PIP2; 20 minutes at room temperature. A digest of the protocol: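 Sf9-expressed, purified human p101/p110γ (2.7 nM) was activated by Gβ1/γ2 (57.7 nM) and reacted with 20 μM ATP plus [γ-32P]ATP on PIP2 (25 μM)/PE (300 μM) micelles with 10 mM MgCl2 in HEPES buffer. Reactions ran 20 min at room temperature. Filter-captured radiolabeled PIP3 was counted by scintillation.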
With `CC(C)Oc1cc(CN2C(=O)COc3ccc(C=C4SC(=S)NC4=O)cc32)cc(OC(C)C)c1` [Example 94, 4-(3,5-Diisopropoxy-benzyl)-6-(4-oxo-2-thioxo-thiazolidin-5-ylidenemethyl)-4H-benzo[1,4]oxazin-3-one], the IC50 was found to be 0.029 µM.

In the case of `O=C1NC(=S)SC1=Cc1ccc2c(c1)N(CCc1ccccc1C(F)(F)F)C(=O)CO2` [Example 108, 6-(Oxo-2-thioxo-thiazolidin-5-ylidenmethyl)-4-[2-(2-trifluoromethyl-phenyl)-ethyl]-4H-benzo[1,4]oxazin-3-one], the IC50 came to 0.004 µM.

For the molecule `O=C1NC(=S)SC1=Cc1ccc2c(c1)N(OCc1ccccc1)C(=O)CO2` [Example 90, 4-Benzyloxy-6-(4-oxo-2-thioxo-thiazolidin-5-ylidenemethyl)-4H-benzo[1,4]oxazin-3-one], the IC50 was 0.004 µM.

In the case of `Cc1cc(C=C2SC(=S)NC2=O)cc2c1OCC(=O)N2Cc1ccc(CN2CCCCC2)cc1` [Example 91, 8-Methyl-6-(4-oxo-2-thioxo-thiazolidin-5-ylidenemethyl)-4-(4-piperidin-1-ylmethyl-benzyl)-4H-benzo[1,4]oxazin-3-one], the IC50 turned out to be 0.008 µM.

Turning to `COc1cccc(CCN2C(=O)COc3ccc(C=C4SC(=S)NC4=O)cc32)c1` [Example 137, 4-[2-(3-Methoxy-phenyl)-ethyl]-6-(4-oxo-2-thioxo-thiazolidin-5-ylidenemethyl)-4H-1,4-benzoxazin-3-one], the IC50 turned out to be 0.003 µM.

Take `O=C1NC(=O)C(=Cc2ccc3c(c2)N(Cc2cccc(Oc4ccccc4F)c2)C(=O)CO3)S1` [Example 307]: the IC50 worked out at 0.005 µM.

As for `CC(C)(C)c1cc(CN2C(=O)COc3ccc(C=C4OC(=S)NC4=O)cc32)cc(C(C)(C)C)n1` [Example 201, 4-(2,6-Di-tert-butyl-pyridin-4-ylmethyl)-6-(4-oxo-2-thioxo-oxazolidin-5-ylidenemethyl)-4H-1,4-benzoxazin-3-one], the IC50 amounted to 0.07 µM.

Regarding `COc1cc(CN2C(=O)COc3ccc(C=C4SC(=S)NC4=O)cc32)cc(OC)n1` [Example 206, 4-(2,6-Dimethoxy-pyridin-4-ylmethyl)-6-(4-oxo-2-thioxo-thiazolidin-5-ylidenemethyl)-4H-benzo[1,4]oxazine-3-one], the IC50 came out at 0.06 µM.

Consider `O=C1COc2ccc(C=C3OC(=S)NC3=O)cc2N1` [Example 84, 6-(4-Oxo-2-thioxo-oxazolidin-5-ylidenemethyl)-4H-benzo[1,4]oxazin-3-one], for which the IC50 came to 0.06 µM.

Consider `O=C1NC(=S)SC1=Cc1ccc2c(c1)N(CC1CC1)C(=O)CO2` [Example 145, 4-Cyclopropylmethyl-6-(4-oxo-2-thioxo-thiazolidin-5-ylidenemethyl)-4H-benzo[1,4]oxazin-3-one], for which the IC50 amounted to 0.026 µM.

On to `CC(C)(C)c1cc(I)cc(CN2C(=O)COc3ccc(C=C4SC(=S)NC4=O)cc32)c1` [Example 52, 4-(3-tert-Butyl-5-iodo-benzyl)-6-(4-oxo-2-thioxo-thiazolidin-5-ylidenemethyl)-4H-1,4-benzoxazin-3-one], for which the IC50 turned out to be 0.016 µM.

For `CS(=O)(=O)c1cccc(CN2C(=O)COc3ccc(/C=C4\SC(=S)NC4=O)cc32)c1` [Example 270, 4-(3-Methanesulfonyl-benzyl)-6-[4-oxo-2-thioxo-thiazolidin-(5Z)-ylidenemethyl]-4H-benzo[1,4]oxazin-3-one], the IC50 came out at 0.011 µM.

Turning to `O=C1NC(=O)C(=Cc2ccc3c(c2)N(CC2CCCCC2)C(=O)CO3)S1` [Example 258, 5-(4-Cyclohexylmethyl-3-oxo-3,4-dihydro-2H-1,4-benzoxazin-6-ylmethylene)-thiazolidine-2,4-dione], the IC50 worked out at 0.004 µM.

On to `CC(C)(C)c1cc(CN2C(=O)COc3ccc(C=C4SC(=S)NC4=O)cc32)cc(C(=O)NCC(=O)O)c1` [Example 60, {3-tert-Butyl-5-[3-oxo-6-(4-oxo-2-thioxo-thiazolidin-5-ylidenemethyl)-2,3-dihydro-1,4-benzoxazin-4-ylmethyl]-benzoylamino}-acetic acid], for which the IC50 stood at 0.026 µM.

On to `CC(C)(C)c1cc(CN2C(=O)COc3ccc(C=C4SC(=O)NC4=O)cc32)cc(C(C)(C)C)c1O` [Example 219, 5-[4-(3,5-Di-tert-butyl-4-hydroxy-benzyl)-3-oxo-3,4-dihydro-2H-1,4-benzoxazin-6-ylmethylene]-thiazolidine-2,4-dione], for which the IC50 was 0.006 µM.

With `O=C1COc2ccc(C=C3NC(=O)NC3=O)cc2N1` [Example 87, 5-(3-Oxo-3,4-dihydro-2H-benzo[1,4]oxazin-6-ylmethylene)-imidazolidine-2,4-dione], the half-maximal inhibitory concentration (IC50) came to 16.1 µM.

For the molecule `Cc1cc(C)cc(C(C)N2C(=O)COc3ccc(C=C4SC(=S)NC4=O)cc32)c1` (stereo not shown) [Example 218, 4-[1-(3,5-Dimethyl-phenyl)-ethyl]-6-(4-oxo-2-thioxo-thiazolidin-5-ylidenemethyl)-4H-1,4-benzoxazin-3-one], the IC50 is 0.055 µM.

Take `Cc1cc(C)cc(CN2C(=O)COc3c(Cl)cc(C=C4SC(=O)NC4=O)cc32)c1` [Example 68, 5-[8-Chloro-4-(3,5-dimethyl-benzyl)-3-oxo-3,4-dihydro-2H-1,4-benzoxazin-6-ylmethylene]-thiazolidine-2,4-dione]: the IC50 worked out at 0.555 µM.

`COc1cc(CN2C(=O)COc3ccc(C=C4SC(=S)NC4=O)cc32)cc(OC)c1` [Example 26, 4-(3,5-Dimethoxy-benzyl)-6-(4-oxo-2-thioxo-thiazolidin-5-ylidenemethyl)-4H-1,4-benzoxazin-3-one]: the IC50 worked out at 0.009 µM.

For `O=C1COc2c(Cl)cc(C=C3SC(=S)NC3=O)cc2N1` [Example 49, 8-Chloro-6-(4-oxo-2-thioxo-thiazolidin-5-ylidenemethyl)-4H-1,4-benzoxazin-3-one], the 50% inhibitory concentration (IC50) stood at 0.061 µM.

Turning to `Cc1cc(CN2C(=O)COc3ccc(C=C4SC(=O)NC4=O)cc32)cc(C)n1` [Example 230, 5-[4-(2,6-Dimethyl-pyridin-4-ylmethyl)-3-oxo-3,4-dihydro-2H-1,4-benzoxazin-6-ylmethylene]-thiazolidine-2,4-dione], the IC50 was found to be 0.043 µM.

As to `CC(C)(O)c1ccc(CN2C(=O)COc3c(F)cc(C=C4SC(=S)NC4=O)cc32)cc1` [Example 294, 8-Fluoro-4-[4-(1-hydroxy-1-methyl-ethyl)-benzyl]-6-(4-oxo-2-thioxo-thiazolidin-5-ylidenemethyl)-4H-benzo[1,4]oxazin-3-one], the IC50 stood at 0.003 µM.

For `O=C1NC(=S)SC1=Cc1ccc2c(c1)N(Cc1ccccc1CO)C(=O)CO2` [Example 24, 4-(2-Hydroxymethyl-benzyl)-6-(4-oxo-2-thioxo-thiazolidin-5-ylidenemethyl)-4H-1,4-benzoxazin-3-one], the IC50 amounted to 0.003 µM.

For the molecule `O=C1NC(=S)SC1=Cc1ccc2c(c1)N(CCCc1ccccc1)C(=O)CO2` [Example 160, 6-(4-Oxo-2-thioxo-thiazolidin-5-ylidenemethyl)-4-(3-phenyl-propyl)-4H-1,4-benzoxazin-3-one], the IC50 is 0.007 µM.

With `CC(C)(C)c1cc(CN2C(=O)COc3ccc(C=C4SC(=S)NC4=O)cc32)cc(C(=O)O)c1` [Example 58, 3-tert-Butyl-5-[3-oxo-6-(4-oxo-2-thioxo-thiazolidin-5-ylidenemethyl)-2,3-dihydro-1,4-benzoxazin-4-ylmethyl]-benzoic acid], the IC50 is 0.032 µM.

On to `O=C1NC(=S)SC1=Cc1ccc2c(c1)N(Cc1ccccc1-c1ccccc1)C(=O)CO2` [Example 159, 4-Biphenyl-2-ylmethyl-6-(4-oxo-2-thioxo-thiazolidin-5-ylidenemethyl)-4H-1,4-benzoxazin-3-one], for which the 50% inhibitory concentration (IC50) came to 0.01 µM.

`Cc1cc(C)cc(CN2C(=O)COc3ccc(C=C4SC(=S)NC4=O)cc32)c1` [Example 181, 4-(3,5-Dimethyl-benzyl)-6-(4-oxo-2-thioxo-thiazolidin-5-ylidenemethyl)-4H-1,4-benzoxazin-3-one]: the IC50 is 0.01 µM.

Turning to `C[C@@H]1Oc2ccc(C=C3SC(=S)NC3=O)cc2N(Cc2cc(C(C)(C)C)cc(C(C)(C)C)c2)C1=O` [Example 37, (S)-4-(3,5-Di-tert-butyl-benzyl)-2-methyl-6-(4-oxo-2-thioxo-thiazolidin-5-ylidenemethyl)-4H-1,4-benzoxazin-3-one], the IC50 is 1.62 µM.

Consider `CC(C)(C)c1cc(CN2CCOCC2)cc(CN2C(=O)COc3ccc(/C=C4\SC(=O)NC4=O)cc32)c1` [Example 277, 5-[1-[4-(3-tert-Butyl-5-morpholin-4-ylmethyl-benzyl)-3-oxo-3,4-dihydro-2H-benzo[1,4]oxazin-6-yl]-meth-(Z)-ylidene]-thiazolidine-2,4-dione], for which the IC50 is 0.005 µM.

With `CC(C)(C)c1cc(CN2C(=O)COc3c(F)cc(C=C4SC(=S)NC4=O)cc32)cc(C(C)(C)C)n1` [Example 220, 4-(2,6-Di-tert-butyl-pyridin-4-ylmethyl)-8-fluoro-6-(4-oxo-2-thioxo-thiazolidin-5-ylidenemethyl)-4H-1,4-benzoxazin-3-one], the IC50 stood at 0.495 µM.

With `O=C1NC(=S)SC1=Cc1ccc2c(c1)N(Cc1ccc(CN3CCN(c4ccccc4)CC3)cc1)C(=O)CO2` [Example 35, 6-(4-Oxo-2-thioxo-thiazolidin-5-ylidenemethyl)-4-[4-(4-phenyl-piperazin-1-ylmethyl)-benzyl]-4H-1,4-benzoxazin-3-one], the IC50 is 0.012 µM.

Take `Cc1cc(CN2C(=O)COc3ccc(C=C4SC(=S)NC4=O)cc32)nn1C` [Example 329, 4-(1,5-Dimethyl-1H-pyrazol-3-ylmethyl)-6-(4-oxo-2-thioxo-thiazolidin-5-ylidenemethyl)-4H-1,4-benzoxazin-3-one]: the IC50 turned out to be 0.028 µM.
